Experimental data reported in US20060194835A1, “Compositions and methods for treating or preventing flaviviridae infections” (priority 2005, published 2006).

Legend:
in vitro = conditions: bovine
BVDV [1] = assay: Protection of MDBK cells from BVDV-induced cytopathicity (CPE reduction, MTS/PMS); format: cell-based, bovine viral diarrhea virus; conditions: for EC50: 50% CPE reduction; for protection of MDBK cells from BVDV-induced cytopathicity (in words): at the concentrations tested
[2] = Drug cytotoxicity in uninfected MDBK cells (MTS/PMS); conditions: bovine
BVDV strain NADL = assay: Inhibition of viral release from BVDV-infected MDBK cells (plaque titer); conditions: MOI = 1; for EC50: inhibits 50% of viral release; for EC50 / EC90: 24 hours; for EC90: inhibits 90% of viral release
MDBK cells [3] = assay: Drug cytotoxicity in uninfected MDBK cells (MTS/PMS); conditions: uninfected MDBK cells
MDBK cells [4] = assay: Cytotoxicity of test compound in MDBK cells in the absence of viral infection (Example 1); conditions: absence of viral infection
BVDV [5] = assay: Triple combination checkerboard CPE assay (celgosivir or castanospermine + interferon-α2b + ribavirin), MacSynergy II; format: cell-based, bovine viral diarrhea virus; conditions: for EC50: read-out: Average Castanospermine EC50
Method: Each double or triple combination was performed twice. The combination efficacy data were analyzed using the MacSynergy™ II software program as described herein.
Each double or triple combination was performed twice. The combination efficacy data were analyzed using the MacSynergy™ II software program as described herein. The EC50 for each of celgosivir and castanospermine was calculated from the triple combination studies described in Example 6.
Each double or triple combination was performed twice. The combination efficacy data were analyzed using the MacSynergy™ software program as described herein. The EC50 for interferon-α2b was calculated from the triple combination studies described in Example 6.

BVDV [6] = assay: Double combination checkerboard CPE assay, MacSynergy II and isobolograms; format: cell-based, bovine viral diarrhea virus; conditions: at 10 IU/mL interferon-α2b
Method: A double combination assay was performed using MDBK cells infected with BVDV in an inhibition of cytopathic effect (CPE) assay as described in Example 2. The double drug combinations were measured by creating a “checkerboard” of drug concentrations used on cell monolayers in microtiter plates, with one drug being titrated horizontally and the other drug titrated vertically, and each double combination being tested at least twice.
The EC50 values of a first test compound derived while in combination with a second test compound were plotted against the corresponding concentration of the second test compound to create an isobole (dose pair). All of the isoboles were plotted in an isobologram to determine the presence of synergy, antagonism or additivity for the combined test compounds. […] The line connecting the monotherapy EC50 values represents the theoretical additivity effect values for the two compounds.
In addition to generating isobolograms, the checkerboard data was imported into MacSynergy™ II software to graph the observed synergy (or additive or antagonism) volumes for the double combinations tested. Briefly, the calculated additive interactions were subtracted from the experimentally determined values to reveal the corresponding drug concentrations at which a synergistic (indicated by positive % values) or antagonistic (indicated by negative % values) effect is observed. The greater the positive percent volume observed, the greater the synergy between the two compounds. […] In contrast, any value about or less than −25 μM^2% or μM(IU/mL) % is indicative of a significant antagonistic effect. The data presented in Table 5 represent volumes of synergy or antagonism with 95% confidence. The confidence level was calculated using a Bonferroni adjustment as a conservative estimate of significance to statistically evaluate the data.

[7] = Bovine viral diarrhea virus isolates and strains, MDBK, MOI 0.05

## O=C(N[C@@H](Cc1c[nH]c2ccccc12)C(=O)O)c1ccc2ccn(Cc3ccccc3)c2c1 [2-BAIP, (L)-2-[(1-Benzyl-1H-indole-6-carbonyl)-amino]-3-(1H-indol-3-yl)-propionic acid, reference compound]
In vitro
  CC50: > 50 µM
BVDV [1]; [7]
  EC50: > 50 µM
BVDV [1]
  protection of MDBK cells from BVDV-induced cytopathicity (in words): do not protect

## NC12CC3CC(CC(C3)C1)C2 [Amantadine, amantadine, reference compound]
[2]
  CC50: > 1000 µM
BVDV [1]; MOI 0.05
  EC50: 357 µM
BVDV [1]; [7]
  EC50: 476 µM

## O[C@H]1[C@H](O)[C@@H](O)CN2CC[C@H](O)[C@H]12 [Castanospermine, [1S-(1α,6β,7α,8β,8aβ)]-octahydro-1,6,7,8-indolizinetetrol]
BVDV strain NADL
  TI (Therapeutic Index, CC50/EC50): >100
  EC50: 19.4 ± 8.3 µM
  EC90: 89 ± 21 µM
MDBK cells [3]
  CC50: > 1000 µM
MDBK cells [4]
  CC50: > 2000 µM
BVDV [5]; Ribavirin 0 μM, Interferon-α2b 0 IU/mL, listed as castanospermine
  EC50: ~52 µM
BVDV [5]; Ribavirin 0 μM, Interferon-α2b 0 IU/mL
  EC50: 52.2 ± 9.5 µM
BVDV [5]; Ribavirin 0 μM, Interferon-α2b 0.7 IU/mL
  EC50: 39 ± 13.4 µM
BVDV [5]; Ribavirin 0 μM, Interferon-α2b 2.2 IU/mL
  EC50: 18.9 ± 2.1 µM
BVDV [5]; Ribavirin 0 μM, Interferon-α2b 6.7 IU/mL
  EC50: 11.9 ± 2.5 µM
BVDV [5]; Ribavirin 0 μM, Interferon-α2b 20 IU/mL
  EC50: < 1.3 µM
BVDV [5]; Ribavirin 0.12 μM, Interferon-α2b 0.7 IU/mL
  EC50: 34.3 ± 3.4 µM
BVDV [5]; Ribavirin 0.12 μM, Interferon-α2b 2.2 IU/mL
  EC50: 23.4 ± 2.4 µM
BVDV [5]; Ribavirin 0.12 μM, Interferon-α2b 6.7 IU/mL
  EC50: 9.7 ± 4.8 µM
BVDV [5]; Ribavirin 0.12 μM, Interferon-α2b 20 IU/mL
  EC50: < 1.4 µM
BVDV [5]; Ribavirin 0.37 μM, Interferon-α2b 0.7 IU/mL
  EC50: 27.7 ± 6.3 µM
BVDV [5]; Ribavirin 0.37 μM, Interferon-α2b 2.2 IU/mL
  EC50: 19.7 ± 5.2 µM
BVDV [5]; Ribavirin 0.37 μM, Interferon-α2b 6.7 IU/mL
  EC50: 6.5 ± 7.5 µM
BVDV [5]; Ribavirin 0.37 μM, Interferon-α2b 20 IU/mL
  EC50: < 1.5 µM
BVDV [5]; Ribavirin 1.1 μM, Interferon-α2b 0.7 IU/mL
  EC50: 14 ± 4.5 µM
BVDV [5]; Ribavirin 1.1 μM, Interferon-α2b 2.2 IU/mL
  EC50: 6.9 ± 1 µM
BVDV [5]; Ribavirin 1.1 μM, Interferon-α2b 6.7 IU/mL
  EC50: < 1.2 µM
BVDV [5]; Ribavirin 1.1 μM, Interferon-α2b 20 IU/mL
  EC50: < 1.2 µM
BVDV [5]; Ribavirin 3.3 μM, Interferon-α2b 0.7 IU/mL
  EC50: < 1.2 µM
BVDV [5]; Ribavirin 3.3 μM, Interferon-α2b 2.2 IU/mL
  EC50: < 1.2 µM
BVDV [5]; Ribavirin 3.3 μM, Interferon-α2b 6.7 IU/mL
  EC50: < 1.2 µM
BVDV [5]; Ribavirin 3.3 μM, Interferon-α2b 20 IU/mL
  EC50: < 1.2 µM
BVDV [5]; upon the addition of increasing concentrations of interferon-α2b
  dose-dependent reduction in EC50: up to 52 fold
BVDV [6]
  fold reduction of EC50 of castanospermine: more than 7 fold
BVDV [1]; MOI 0.01, read-out: EC50
  EC50: 62 ± 15 µM

## CCCCN1C[C@H](O)[C@@H](O)[C@H](O)[C@H]1CO [NB-DNJ, N-butyldeoxynojirimycin, reference compound]
MDBK cells [3]
  CC50: > 500 µM
BVDV [1]; MOI 0.05, read-out: EC50
  EC50: 459 µM

## C[C@@]1(O)[C@H](O)[C@@H](CO)O[C@H]1n1ccc(N)nc1=O [NM-107, 2′-C-methyl cytidine, reference compound]
In vitro
  CC50: 228 µM
BVDV [1]; Bovine viral diarrhea virus isolates and strains, MDBK, MOI 0.01
  EC50: 2.1 ± 0.5 µM

## Interferon-α2b
BVDV strain NADL
  TI (Therapeutic Index, CC50/EC50): >200
  EC50: 8.0 ± 6.8 IU/mL
  EC90: 114 ± 92 IU/mL
MDBK cells [3]
  CC50: >300 IU/mL
MDBK cells [4]
  CC50: >1000 IU/mL
BVDV [5]; Castanospermine added 0 μM
  Average Interferon-α2b EC50: 16 IU/mL
BVDV [5]; Castanospermine added 1.2 μM
  Average Interferon-α2b EC50: 18 IU/mL
BVDV [5]; Castanospermine added 3.7 μM
  Average Interferon-α2b EC50: 13 IU/mL
BVDV [5]; Castanospermine added 11 μM
  Average Interferon-α2b EC50: 7 IU/mL
BVDV [5]; Castanospermine added 33 μM
  Average Interferon-α2b EC50: 1 IU/mL
BVDV [5]; Celgosivir added 0 μM
  Average Interferon-α2b EC50: 19 IU/mL
BVDV [5]; Celgosivir added 0.25 μM
  Average Interferon-α2b EC50: 21 IU/mL
BVDV [5]; Celgosivir added 0.74 μM
  Average Interferon-α2b EC50: 14 IU/mL
BVDV [5]; Celgosivir added 2.2 μM
  Average Interferon-α2b EC50: 5 IU/mL
BVDV [5]; Celgosivir added 6.7 μM
  Average Interferon-α2b EC50: <1 IU/mL
BVDV [5]; at increased concentration of castanospermine or celgosivir
  EC50 of interferon-α2b: less than 1 IU/mL
BVDV [5]; without added castanospermine or celgosivir
  EC50 of interferon-α2b: about 20 IU/mL
BVDV [1]; MOI 0.01
  EC50: 19.4 ± 6 IU/mL

## Interferon-ω: type I interferon, interferon-ω (Cedarlane Laboratories)
MDBK cells [3]
  CC50: >1000 IU/mL
BVDV [1]; MOI 0.01
  EC50: 37 ± 1.4 IU/mL

## Peginterferon-α2a
MDBK cells [3]
  CC50: >1000 IU/mL
BVDV [1]; MOI 0.01
  EC50: 16.6 ± 11 IU/mL

B1: Interferon-γ: type II interferon (protein, UniProt P01579 24-161, looked up)
Interferon gamma: QDPYVKEAENLKKYFNAGHSDVADNGTLFLGILKNWKEESDRKIMQSQIVSFYFKLFKNFKDDQSIQKSVETIKEDMNVKFFNSNKKKRDDFEKLTNYSVTDLNVQRKAIHELIQVMAELSPAAKTGKRKRSQMLFRG
MDBK cells [3]
  CC50: >1000 IU/mL
BVDV [1]; MOI 0.01
  EC50: >1000 IU/mL
BVDV [1]
  protection of MDBK cells from BVDV-induced cytopathicity (in words): do not protect
